Data set [1] is described as follows: Stress Stability study of Polymorphic Form RK2 (XRPD after stress). In kind it is physicochemical.
Data set [2] is described as follows: Stress Stability study of Polymorphic Form Alpha (PXRD after stress). It counts as physicochemical.

Consider `Cc1occc(=O)c1[O-].Cc1occc(=O)c1[O-].Cc1occc(=O)c1[O-].[Fe+3]` [Polymorphic Form RK2], for which the XRPD result in data set [1] (50% RH, 12 h) was “Form RK2”; in data set [1] (75% RH, 12 h), “Form RK2”; in data set [1] (90% RH, 12 h) it was “Form RK2”; in data set [1] (Drying at 100° C., 3 h), “Form RK2”; in data set [1] (Drying at 150° C., 3 h), “Form RK2”; in data set [1] (MTBE Slurry, 12 h) it was “Form RK2”. Moreover, the XRPD result in data set [1] (Micronization study) and in data set [1] (Pressure study (Pressure: 17.5 Kg/cm^2)) was “Form RK2” in each case. In addition, the “XRPD pattern after subjecting to various stress conditions” value in data set [1] (various stress conditions as mentioned in the Table 2) is “stable”.

As for `Cc1occc(=O)c1[O-].Cc1occc(=O)c1[O-].Cc1occc(=O)c1[O-].[Fe+3]` [Polymorphic Form Alpha, 3-hydroxy-2-methyl-4H-pyrane-4-one iron (III) complex (3:1)], the PXRD entry in data set [2] (75% RH, 15 h) is recorded as “Form Alpha”; in data set [2] (90% RH, 15 h), “Form Alpha”; in data set [2] (Drying at 30° C., 3 h), “Form Alpha”; in data set [2] (Drying at 70° C., 3 h), “Form Alpha”; in data set [2] (Drying at 100° C., 3 h), “Form Alpha”; in data set [2] (Grinding, 10 min), “Form Alpha”. The PXRD result in data set [2] (Hexane Slurry) and in data set [2] (Pressure study (17 Kg/cm2; 15 min)) was “Form Alpha” each time. The “XRPD pattern after subjecting to various stress conditions” value in data set [2] (various stress conditions as mentioned in the Table 1) is “stable”.
